Laboratory results reported in patent publication US20160058872A1, “IMIDE-BASED MODULATORS OF PROTEOLYSIS AND ASSOCIATED METHODS OF USE” (Arvinas, Inc., priority 2014, published 2016).

System: c-Myc
Assay: c-Myc protein level by immunoblot in BL cell lines
Assay type: cell-based
Conditions: 24 hours, washout
Experimental: Cultured cells were collected in lysis buffer containing 40 mM HEPES (pH 7.4), 140 mM NaCl, 2.5 mM EDTA, 1% NP-40, 0.1% SDS and protease inhibitor cocktail. After 10 minutes of centrifugation (14000 rpm), supernatant was collected for protein concentration determination by BCA method and subjected for immunoblotting by standard protocol. Western blot results were visualized using Bio-Rad Clarity ECL Western Blotting Substrate on Bio-Rad ChemiDoc™ MP imaging system.
A separate set of cells were treated in the same manner, except that DMSO was used in place of the inhibitor. Following treatment, cell lysates were collected and analyzed by immunoblot for c-Myc and Actin.
Cells were re-seeded and incubated without inhibitor for 0 hr, 0.5 hr, 1.0 hr, 2.0 hr, 3.0 hr, 4.0 hr, and 6.0 hr. Cell lysates were then collected at the various time points and analyzed by immunoblot for c-Myc and Actin. In a parallel control experiment, NAMALWA cells were treated in the same manner, except DMSO was used in place of JQ1.
After treatment, the cells were either lysed (to evaluate the suppression of c-Myc by the inhibitors) or washed to remove the inhibitor, re-seeded, and incubated without inhibitor for 4.0 hours (to evaluate the reversibility of c-Myc suppression). Cell lysates were collected and analyzed by immunoblot for c-Myc and Actin.
Following treatment, cell lysates were collected and analyzed by immunoblot for BRD4, c-Myc and Actin.
Cells were re-seeded in fresh medium and incubated without any compound for 0 hr, 2.0 hr, 4.0 hr, 6.0 hr, and 24.0 hr. In a parallel control experiment, cells were treated in the same manner, except DMSO was used in place of inhibitor. Lysates were collected and analyzed by immunoblot for BRD4, c-Myc, and Actin.

Cc1sc2c(c1C)C(c1ccc(Cl)cc1)=N[C@@H](CC(=O)OC(C)(C)C)c1nnc(C)n1-2 [JQ1]
time to recovery of c-Myc to control level after removal (NAMALWA, 1.0 μM): ≤ 4 h
time to return of c-Myc to control level post removal (NAMALWA, after 1000 nM): ≤ 3.0 h
time to significant c-Myc increase after removal (Ramos, after 1000 nM): ≤ 4.0 h
